Literature values as cited in patent US10155751B2, “Pyrazolyl-substituted heteroaryls and their use as medicaments” (Boehringer Ingelheim International GmbH, priority 2015, dated 2018).

Columns and labels:
[1] = test system: platelet counts in patients with ITP; conditions: Podolanczuk et al, Blood (2009); cited from earlier work
Aurora B (AURB) = Aurora B (AURB) (Homo sapiens (Human), UniProt Q96GD4); conditions: Thoma et al, Bioorganic & Medicinal Chemistry Letters (2015); cited from earlier work
Chain of Aurora B (AURB) (Q96GD4 whole entry): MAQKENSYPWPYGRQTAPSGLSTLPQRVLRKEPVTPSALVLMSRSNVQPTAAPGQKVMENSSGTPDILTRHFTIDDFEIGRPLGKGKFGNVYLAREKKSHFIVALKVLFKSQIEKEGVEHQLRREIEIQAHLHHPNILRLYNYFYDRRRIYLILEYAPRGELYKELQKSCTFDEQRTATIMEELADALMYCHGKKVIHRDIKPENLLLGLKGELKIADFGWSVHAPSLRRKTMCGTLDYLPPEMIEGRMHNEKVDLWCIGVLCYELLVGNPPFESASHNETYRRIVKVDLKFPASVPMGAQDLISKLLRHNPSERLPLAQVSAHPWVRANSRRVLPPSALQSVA

Row | Compound | platelet counts [1] | inhibition of Aurora B (AURB) (Aurora B (AURB))
1 | COc1cc(Nc2ncc(F)c(Nc3ccc4c(n3)N(COP(=O)(O)O)C(=O)C(C)(C)O4)n2)cc(OC)c1OC [Example R788] | improved platelet counts | –
2 | C[C@@H](Oc1cc(-c2cnn(C3CC3)c2)cc2nn(C)c(F)c12)[C@H]1CNC(=O)C1 [compound No. 5] | – | inhibited Aurora B
